Results reported in US5102873A (priority 1989, dated 1992).
Converted amounts (≈) assume the structure as drawn. “And” between values parts separate entries of the source, which are not always exact repeats. Identical values can stand only once.

Assays:
[1] = Cytotoxicity of test compound to Vero host cells (minimum toxic concentration); settings: monkey, MTC (minimum toxic concentration), footnote: lowest concentration giving 50% reduction in percent survival of viable host cells
[2] = test system: vaccinia virus; assay: microbe, parasite or virus in culture; assay type: cell-based; settings: for IC50: Orthopoxvirus vaccinia, Vero, read-out: ID50 (inhibitory dose 50; 50% reduction in virus replication), vaccinia virus in Vero cells, called MIC50; for TI (therapeutic index, MTC/ID50) / Virus Rating (VR): Vero cells; for TI (therapeutic index, MTC/ID50): TI>50 indicates a useful compound; for Virus Rating (VR): VR >=1.0 significant, 0.5-0.9 marginal, <0.5 inactive, repeat lines are repeat tests

## N=c1c2ncn([C@@H]3O[C@H](CO)[C@@H](O)[C@H]3O)c2ncn1OCc1cccc(Cl)c1.[O-][Cl+3]([O-])([O-])O [Compound 2p, 1-(3-Chlorobenzyloxy)adenosine, perchloric acid salt]
[1]
  MCC: > 320 µg/mL
[2]
  IC50: 1.08 µg/mL
  TI (therapeutic index, MTC/ID50): 295 and 193

## CC(On1cnc2c(ncn2[C@@H]2O[C@H](CO)[C@@H](O)[C@H]2O)c1=N)c1ccccc1.[O-][Cl+3]([O-])([O-])O (some centres unmarked) [Compound 2f, 1-(1-Phenylethyloxy)adenosine, perchloric acid salt]
[2]
  IC50: < 0.32 µg/mL

## Nc1ncnc2c1ncn2[C@@H]1O[C@H](CO)[C@@H](O)[C@@H]1O [AraA, 9-β-D-arabinofuranosyladenine, reference compound]
[1]
  MCC: > 320 µg/mL
[2]
  IC50: 2 µg/mL (≈ 7.48 µM)
  TI (therapeutic index, MTC/ID50): 13.3
  Virus Rating (VR): 1.0

## N=c1c2ncn([C@@H]3O[C@H](CO)[C@@H](O)[C@H]3O)c2ncn1OCc1ccc(F)c(F)c1.[O-][Cl+3]([O-])([O-])O [Compound 2k, 1-(3,4-Difluorobenzyloxy)adenosine, perchloric acid salt]
[1]
  MCC: > 320 µg/mL
[2]
  IC50: 0.48 µg/mL
  TI (therapeutic index, MTC/ID50): 671 and 434
  Virus Rating (VR): > 2.3

## COc1ccc([N+](=O)[O-])cc1COn1cnc2c(ncn2[C@@H]2O[C@H](CO)[C@@H](O)[C@H]2O)c1=N.[O-][Cl+3]([O-])([O-])O [Compound 2t, 1-(2-Methoxy-5-nitrobenzyloxy)adenosine, perchloric acid salt]
[1]
  MCC: > 320 µg/mL
[2]
  IC50: 2.01 µg/mL
  TI (therapeutic index, MTC/ID50): 160 and 87

## Cc1ccc(C)c(COn2cnc3c(ncn3[C@@H]3O[C@H](CO)[C@@H](O)[C@H]3O)c2=N)c1.[O-][Cl+3]([O-])([O-])O [Compound 2bb, 1-(2,5-Dimethylbenzyloxy)adenosine, perchloric acid salt]
[1]
  MCC: 320 µg/mL
[2]
  IC50: 0.38 µg/mL
  TI (therapeutic index, MTC/ID50): > 850 and > 1350

## Cc1ccc(COn2cnc3c(ncn3[C@@H]3O[C@H](CO)[C@@H](O)[C@H]3O)c2=N)cc1.[O-][Cl+3]([O-])([O-])O [Compound 2b, 1-(4-Methylbenzyloxy)adenosine, perchloric acid salt]
[1]
  MCC: 100 µg/mL
[2]
  IC50: 0.11 µg/mL
  TI (therapeutic index, MTC/ID50): 917
  Virus Rating (VR): 2.4

## N=c1c2ncn([C@@H]3O[C@H](CO)[C@@H](O)[C@H]3O)c2ncn1OCc1ccc([N+](=O)[O-])cc1.[O-][Cl+3]([O-])([O-])O [Compound 2s, 1-(4-Nitrobenzyloxy)adenosine, perchloric acid salt]
[1]
  MCC: > 320 µg/mL
[2]
  IC50: 2.34 µg/mL
  TI (therapeutic index, MTC/ID50): 137 and 89
  Virus Rating (VR): > 1.7

## N=c1c2ncn([C@@H]3O[C@H](CO)[C@@H](O)[C@H]3O)c2ncn1OCc1ccc(F)cc1.[O-][Cl+3]([O-])([O-])O [Compound 2i, 1-(4-Fluorobenzyloxy)adenosine, perchloric acid salt]
[1]
  MCC: > 320 µg/mL
[2]
  IC50: 2.41 µg/mL
  TI (therapeutic index, MTC/ID50): 133 and 160

## N=c1c2ncn([C@@H]3O[C@H](CO)[C@@H](O)[C@H]3O)c2ncn1OCc1cc(C(F)(F)F)cc(C(F)(F)F)c1.[O-][Cl+3]([O-])([O-])O [Compound 2m, 1-[3,5-Bis(trifluoromethyl)benzyloxy]adenosine, perchloric acid salt]
[1]
  MCC: > 320 µg/mL
[2]
  IC50: 1.03 µg/mL
  TI (therapeutic index, MTC/ID50): 311 and 314

## Nc1c2ncn([C@H]3C[C@H](O)[C@@H](CO)O3)c2nc[n+]1[O-] [Compound 1b, 2'-Deoxyadenosine-N^1-oxide]
[1]
  MCC: > 320 µg/mL
[2]
  IC50: 3.06 µg/mL (≈ 11.5 µM)
  TI (therapeutic index, MTC/ID50): 104
  Virus Rating (VR): > 1.7

## CNc1c2ncn([C@@H]3O[C@H](CO)[C@@H](O)[C@H]3O)c2nc[n+]1[O-] [Compound 1c, 6-Methylamino-9-β-D-ribofuranosylpurine-N^1-oxide]
[1]
  MCC: 320 µg/mL
[2]
  IC50: 0.45 µg/mL (≈ 1.51 µM)
  TI (therapeutic index, MTC/ID50): 708
  Virus Rating (VR): > 2.4

## Cc1ccccc1COn1cnc2c(ncn2[C@@H]2O[C@H](CO)[C@@H](O)[C@H]2O)c1=N.[O-][Cl+3]([O-])([O-])O [Compound 2c, 1-(2-Methylbenzyloxy)adenosine, perchloric acid salt]
[1]
  MCC: > 320 µg/mL
[2]
  IC50: 0.32 µg/mL
  TI (therapeutic index, MTC/ID50): 1000
  Virus Rating (VR): > 2.4

## COc1ccccc1COn1cnc2c(ncn2[C@@H]2O[C@H](CO)[C@@H](O)[C@H]2O)c1=N.[O-][Cl+3]([O-])([O-])O [Compound 2y, 1-(2-methoxybenzyloxy)adenosine, perchloric acid salt]
[1]
  MCC: 320 µg/mL
[2]
  IC50: 0.17 µg/mL
  TI (therapeutic index, MTC/ID50): 1935 and > 3020

## N=c1c2ncn([C@@H]3O[C@H](CO)[C@@H](O)[C@H]3O)c2ncn1OCc1ccccc1F.[O-][Cl+3]([O-])([O-])O [Compound 2g, 1-(2-Fluorobenzyloxy)adenosine, perchloric acid salt]
[1]
  MCC: > 320 µg/mL
[2]
  IC50: 4.97 µg/mL
  TI (therapeutic index, MTC/ID50): 64 and 34

## Nc1c2ncn([C@@H]3O[C@H](CO)[C@@H](O)[C@H]3O)c2nc[n+]1[O-] [Compound 1a, Adenosine-N^1 -oxide]
[1]
  MCC: 100 µg/mL
[2]
  IC50: 0.32 µg/mL (≈ 1.13 µM)
  TI (therapeutic index, MTC/ID50): 312
  Virus Rating (VR): > 2.4

## COc1cccc(COn2cnc3c(ncn3[C@@H]3O[C@H](CO)[C@@H](O)[C@H]3O)c2=N)c1.[O-][Cl+3]([O-])([O-])O [Compound 2e, 1-(3-Methoxybenzyloxy)adenosine, perchloric acid salt]
[1]
  MCC: > 320 µg/mL
[2]
  IC50: 0.2 µg/mL
  TI (therapeutic index, MTC/ID50): 1609 and 1075

## N#Cc1ccc(COn2cnc3c(ncn3[C@@H]3O[C@H](CO)[C@@H](O)[C@H]3O)c2=N)cc1.[O-][Cl+3]([O-])([O-])O [Compound 2v, 1-(4-Cyanobenzyloxy)adenosine, perchloric acid salt]
[1]
  MCC: > 320 µg/mL
[2]
  IC50: 3.2 µg/mL
  TI (therapeutic index, MTC/ID50): 100 and 134

## Cc1cccc(COn2cnc3c(ncn3[C@@H]3O[C@H](CO)[C@@H](O)[C@H]3O)c2=N)c1.[O-][Cl+3]([O-])([O-])O [Compound 2a, 1-(3-Methylbenzyloxy)adenosine, perchloric acid salt]
[1]
  MCC: > 320 µg/mL
[2]
  IC50: 0.41 µg/mL
  TI (therapeutic index, MTC/ID50): 781 and 487
  Virus Rating (VR): > 2.4

## N=c1c2ncn([C@@H]3O[C@H](CO)[C@@H](O)[C@H]3O)c2ncn1OCc1cccc([N+](=O)[O-])c1.[O-][Cl+3]([O-])([O-])O [Compound 2r, 1-(3-Nitrobenzyloxy)adenosine, perchloric acid salt]
[1]
  MCC: > 320 µg/mL
[2]
  IC50: 10 µg/mL
  TI (therapeutic index, MTC/ID50): 32 and 30

## N=c1c2ncn([C@@H]3O[C@H](CO)[C@@H](O)[C@H]3O)c2ncn1OCc1cc(F)ccc1F.[O-][Cl+3]([O-])([O-])O [Compound 2gg, 1-(2,5-Difluorobenzyloxy)adenosine, perchloric acid salt]
[1]
  MCC: > 320 µg/mL
[2]
  IC50: 1.77 µg/mL
  TI (therapeutic index, MTC/ID50): 180 and 115

## N#Cc1cccc(COn2cnc3c(ncn3[C@@H]3O[C@H](CO)[C@@H](O)[C@H]3O)c2=N)c1.[O-][Cl+3]([O-])([O-])O [Compound 2x, 1-(3-Cyanobenzyloxy)adenosine, perchloric acid salt]
[1]
  MCC: > 320 µg/mL
[2]
  TI (therapeutic index, MTC/ID50): 182 and 134

## N=c1c2ncn([C@@H]3O[C@H](CO)[C@@H](O)[C@H]3O)c2ncn1OCc1ccccc1.[O-][Cl+3]([O-])([O-])O [Compound 2dd, 1-Benzyloxyadenosine, perchloric acid salt]
[1]
  MCC: 320 µg/mL
[2]
  IC50: 1.77 µg/mL
  TI (therapeutic index, MTC/ID50): 180
  Virus Rating (VR): > 2.0

## N=c1c2ncn([C@@H]3O[C@H](CO)[C@@H](O)[C@H]3O)c2ncn1OCc1cc(F)cc(F)c1.[O-][Cl+3]([O-])([O-])O [Compound 2ff, 1-(3,5-Difluorobenzyloxy)adenosine, perchloric acid salt]
[1]
  MCC: > 320 µg/mL
[2]
  IC50: 1.55 µg/mL
  TI (therapeutic index, MTC/ID50): 205 and 175
  Virus Rating (VR): > 2.0

## N=c1c2ncn([C@@H]3O[C@H](CO)[C@@H](O)[C@H]3O)c2ncn1OCc1cccc(F)c1.[O-][Cl+3]([O-])([O-])O [Compound 2h, 1-(3-Fluorobenzyloxy)adenosine, perchloric acid salt]
[1]
  MCC: > 320 µg/mL
[2]
  IC50: 0.98 µg/mL
  TI (therapeutic index, MTC/ID50): 325 and 285

## COc1ccc(COn2cnc3c(ncn3[C@@H]3O[C@H](CO)[C@@H](O)[C@H]3O)c2=N)cc1.[O-][Cl+3]([O-])([O-])O [Compound 2d, 1-(4-Methoxybenzyloxy)adenosine, perchloric acid salt]
[2]
  IC50: 0.01 µg/mL

## Cc1ccc(COn2cnc3c(ncn3[C@@H]3O[C@H](CO)[C@@H](O)[C@H]3O)c2=N)c(C)c1.[O-][Cl+3]([O-])([O-])O [Compound 2cc, 1-(2,4-Dimethylbenzyloxy)adenosine, perchloric acid salt]
[1]
  MCC: 320 µg/mL
[2]
  IC50: 0.08 µg/mL
  TI (therapeutic index, MTC/ID50): 4110 and 3890
  Virus Rating (VR): 2.9

## N=c1c2ncn([C@@H]3O[C@H](CO)[C@@H](O)[C@H]3O)c2ncn1OCc1ccc(C(F)(F)F)cc1C(F)(F)F.[O-][Cl+3]([O-])([O-])O [Compound 2n, 1-[2,4-Bis(trifluoromethyl)benzyloxy]adenosine, perchloric acid salt]
[1]
  MCC: > 320 µg/mL
[2]
  IC50: 1.45 µg/mL
  TI (therapeutic index, MTC/ID50): 221 and 181

## COC(=O)c1cccc(COn2cnc3c(ncn3[C@@H]3O[C@H](CO)[C@@H](O)[C@H]3O)c2=N)c1.[O-][Cl+3]([O-])([O-])O [Compound 2u, 1-(3-Methoxycarbonylbenzyloxy)adenosine, perchloric acid salt]
[1]
  MCC: > 320 µg/mL
[2]
  IC50: 1.55 µg/mL
  TI (therapeutic index, MTC/ID50): 207 and 139

## N#Cc1ccccc1COn1cnc2c(ncn2[C@@H]2O[C@H](CO)[C@@H](O)[C@H]2O)c1=N.[O-][Cl+3]([O-])([O-])O [Compound 2w, 1-(2-Cyanobenzyloxy)adenosine, perchloric acid salt]
[1]
  MCC: > 320 µg/mL
